Assay results reported in ChEMBL document CHEMBL1201862, “PubChem BioAssay data set” (2004).
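Growth conditions: 96-well plates. Treatment: test compound, 48 hours, 5 concentrations. Analysis: linear interpolation between bracketing concentrations; unreached endpoints set to highest concentration. Here, GI50 denotes the concentration required for 50% inhibition of growth.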 Activity calls are given as the source filed them. Rule as the data show it: active = GI50 up to about 1.1 µM and inactive = higher.

Legend:
Test in all cases: NCI anticancer screen, dose series, 48 h
UO-31 = test system: UO-31
DMS-114 = test system: DMS-114
SNB-19 = test system: SNB-19
HCC 2998 = test system: HCC 2998
HCT-116 = test system: HCT-116
CAKI-1 = test system: CAKI-1
A498 = test system: A498
LXFL 529 = test system: LXFL 529
SK-OV-3 = test system: SK-OV-3
HT-29 = test system: HT-29
LOX IMVI = test system: LOX IMVI
OVCAR-4 = test system: OVCAR-4
SN12C = test system: SN12C
SNB-75 = test system: SNB-75
HOP-62 = test system: HOP-62
M19-MEL = test system: M19-MEL
NCI-H226 = test system: NCI-H226
ACHN = test system: ACHN
OVCAR-3 = test system: OVCAR-3
SF-268 = test system: SF-268
786-0 = test system: 786-0
DMS-273 = test system: DMS-273
SF-539 = test system: SF-539
SK-MEL-2 = test system: SK-MEL-2
IGROV-1 = test system: IGROV-1
NCI-H460 = test system: NCI-H460
DLD-1 = test system: DLD-1
K562 = test system: K562
SNB-78 = test system: SNB-78
HOP-92 = test system: HOP-92
TK-10 = test system: TK-10
SK-MEL-5 = test system: SK-MEL-5
U-251 = test system: U-251
UACC-62 = test system: UACC-62
OVCAR-8 = test system: OVCAR-8
RXF 631 = test system: RXF 631
A549 = test system: A549
MOLT-4 = test system: MOLT-4
UACC-257 = test system: UACC-257
NCI-H23 = test system: NCI-H23
Malme-3M = test system: Malme-3M
SK-MEL-28 = test system: SK-MEL-28
HL-60 = test system: HL-60
OVCAR-5 = test system: OVCAR-5
RXF 393 = test system: RXF 393
EKVX = test system: EKVX
CCRF-CEM = test system: CCRF-CEM
RPMI-8226 = test system: RPMI-8226
HCT-15 = test system: HCT-15
COLO 205 = test system: COLO 205
KM-20L2 = test system: KM-20L2
SW-620 = test system: SW-620
HOP-18 = test system: HOP-18
SF-295 = test system: SF-295
NCI-H522 = test system: NCI-H522
KM12 = test system: KM12
M14 = test system: M14
SR = test system: SR
XF498 = test system: XF498

O=Cc1c(O)c(C(=O)Nc2ccc3[nH]c(=O)[nH]c3c2)cc2ccccc12
GI50 (UO-31): > 100 µM (inactive)
GI50 (DMS-114): > 100 µM (inactive)
GI50 (SNB-19): > 100 µM (inactive)
GI50 (HCC 2998): > 100 µM (inactive)
GI50 (HCT-116): > 100 µM (inactive)
GI50 (CAKI-1): > 100 µM (inactive)
GI50 (A498): > 100 µM (inactive)
GI50 (LXFL 529): > 100 µM (inactive)
GI50 (SK-OV-3): > 100 µM (inactive)
GI50 (HT-29): > 100 µM (inactive)
GI50 (LOX IMVI): > 100 µM (inactive)
GI50 (OVCAR-4): > 100 µM (inactive)
GI50 (SN12C): > 100 µM (inactive)
GI50 (SNB-75): > 100 µM (inactive)
GI50 (HOP-62): > 100 µM (inactive)
GI50 (M19-MEL): > 100 µM (inactive)
GI50 (NCI-H226): > 100 µM (inactive)
GI50 (ACHN): > 100 µM (inactive)
GI50 (OVCAR-3): > 100 µM (inactive)
GI50 (SF-268): > 100 µM (inactive)
GI50 (786-0): > 100 µM (inactive)
GI50 (DMS-273): > 100 µM (inactive)
GI50 (SF-539): > 100 µM (inactive)
GI50 (SK-MEL-2): > 100 µM (inactive)
GI50 (IGROV-1): > 100 µM (inactive)
GI50 (NCI-H460): > 100 µM (inactive)
GI50 (DLD-1): > 100 µM (inactive)
GI50 (K562): > 100 µM (inactive)
GI50 (SNB-78): > 100 µM (inactive)
GI50 (HOP-92): > 100 µM (inactive)
GI50 (TK-10): > 100 µM (inactive)
GI50 (SK-MEL-5): > 100 µM (inactive)
GI50 (U-251): > 100 µM (inactive)
GI50 (UACC-62): > 100 µM (inactive)
GI50 (OVCAR-8): > 100 µM (inactive)
GI50 (RXF 631): > 100 µM (inactive)
GI50 (A549): > 100 µM (inactive)
GI50 (MOLT-4): > 100 µM (inactive)
GI50 (UACC-257): > 100 µM (inactive)
GI50 (NCI-H23): > 100 µM (inactive)
GI50 (Malme-3M): > 100 µM (inactive)
GI50 (SK-MEL-28): > 100 µM (inactive)
GI50 (HL-60): > 100 µM (inactive)
GI50 (OVCAR-5): > 100 µM (inactive)
GI50 (RXF 393): > 100 µM (inactive)
GI50 (EKVX): > 100 µM (inactive)
GI50 (CCRF-CEM): > 100 µM (inactive)
GI50 (RPMI-8226): > 100 µM (inactive)
GI50 (HCT-15): > 100 µM
GI50 (COLO 205): > 100 µM (inactive)
GI50 (KM-20L2): > 100 µM (inactive)
GI50 (SW-620): > 100 µM (inactive)
GI50 (HOP-18): > 100 µM (inactive)
GI50 (SF-295): > 100 µM (inactive)
GI50 (NCI-H522): > 100 µM (inactive)
GI50 (KM12): > 100 µM (inactive)
GI50 (M14): > 100 µM (inactive)

COC(=O)/C=C(/C(=O)OC)C1(C)c2cc(C(=O)OC)c(C(=O)OC)c(N)c2C(=N)N1c1ccccc1 (stereo not drawn)
GI50 (UO-31): 22.6 µM (inactive)
GI50 (DMS-114): 15.1 µM (inactive)
GI50 (SNB-19): 49 µM (inactive)
GI50 (HCC 2998): 16.7 µM (inactive)
GI50 (HCT-116): 15.8 µM (inactive)
GI50 (CAKI-1): 21.4 µM (inactive)
GI50 (A498): 31.1 µM (inactive)
GI50 (LXFL 529): 19 µM (inactive)
GI50 (SK-OV-3): 34 µM (inactive)
GI50 (HT-29): 16.7 µM (inactive)
GI50 (LOX IMVI): 18.2 µM (inactive)
GI50 (SN12C): 19.6 µM (inactive)
GI50 (SNB-75): 29.4 µM (inactive)
GI50 (HOP-62): 86.7 µM (inactive)
GI50 (M19-MEL): 13.9 µM (inactive)
GI50 (NCI-H226): 36.2 µM (inactive)
GI50 (ACHN): 18 µM (inactive)
GI50 (OVCAR-3): 17.9 µM (inactive)
GI50 (SF-268): 19.3 µM (inactive)
GI50 (786-0): 28.6 µM (inactive)
GI50 (DMS-273): 52.8 µM (inactive)
GI50 (SF-539): 22.2 µM (inactive)
GI50 (SK-MEL-2): 36.7 µM (inactive)
GI50 (IGROV-1): 27.5 µM (inactive)
GI50 (SR): 22.8 µM (inactive)
GI50 (NCI-H460): 39.5 µM (inactive)
GI50 (DLD-1): 13.8 µM (inactive)
GI50 (XF498): 14.7 µM (inactive)
GI50 (K562): 18.7 µM (inactive)
GI50 (HOP-92): 10.4 µM (inactive)
GI50 (TK-10): 41.4 µM (inactive)
GI50 (SK-MEL-5): > 10 µM (inactive)
GI50 (U-251): 20.1 µM (inactive)
GI50 (UACC-62): 24.6 µM (inactive)
GI50 (OVCAR-8): 17.4 µM (inactive)
GI50 (RXF 631): 29.1 µM (inactive)
GI50 (A549): 42 µM (inactive)
GI50 (MOLT-4): 17.8 µM (inactive)
GI50 (UACC-257): > 10 µM (inactive)
GI50 (NCI-H23): 22.1 µM (inactive)
GI50 (Malme-3M): 17.4 µM (inactive)
GI50 (SK-MEL-28): 18.1 µM (inactive)
GI50 (HL-60): 14.1 µM (inactive)
GI50 (OVCAR-5): 41.4 µM (inactive)
GI50 (RXF 393): 17.1 µM (inactive)
GI50 (EKVX): 27.1 µM (inactive)
GI50 (CCRF-CEM): 15.5 µM (inactive)
GI50 (RPMI-8226): 21.5 µM (inactive)
GI50 (HCT-15): 31.8 µM
GI50 (COLO 205): 15.9 µM (inactive)
GI50 (KM-20L2): 17 µM (inactive)
GI50 (HOP-18): 20.6 µM (inactive)
GI50 (SF-295): 17.9 µM (inactive)
GI50 (NCI-H522): 14.2 µM (inactive)
GI50 (KM12): 17.2 µM (inactive)
GI50 (M14): 17.5 µM (inactive)
